Source: ChEMBL document CHEMBL5715260, “Selectivity Literature for EUbOPEN Chemogenomic Library” (2024)

Experiments:
Design in all cases: recommended concentration 1 uM
[1] = target: T1, Nuclear receptor subfamily 2 group C member 1 (Homo sapiens) (UniProt P13056); assay: Selectivity interaction (Reporter gene assay) EUB0000567a NR2C1
T1 sequence (whole entry): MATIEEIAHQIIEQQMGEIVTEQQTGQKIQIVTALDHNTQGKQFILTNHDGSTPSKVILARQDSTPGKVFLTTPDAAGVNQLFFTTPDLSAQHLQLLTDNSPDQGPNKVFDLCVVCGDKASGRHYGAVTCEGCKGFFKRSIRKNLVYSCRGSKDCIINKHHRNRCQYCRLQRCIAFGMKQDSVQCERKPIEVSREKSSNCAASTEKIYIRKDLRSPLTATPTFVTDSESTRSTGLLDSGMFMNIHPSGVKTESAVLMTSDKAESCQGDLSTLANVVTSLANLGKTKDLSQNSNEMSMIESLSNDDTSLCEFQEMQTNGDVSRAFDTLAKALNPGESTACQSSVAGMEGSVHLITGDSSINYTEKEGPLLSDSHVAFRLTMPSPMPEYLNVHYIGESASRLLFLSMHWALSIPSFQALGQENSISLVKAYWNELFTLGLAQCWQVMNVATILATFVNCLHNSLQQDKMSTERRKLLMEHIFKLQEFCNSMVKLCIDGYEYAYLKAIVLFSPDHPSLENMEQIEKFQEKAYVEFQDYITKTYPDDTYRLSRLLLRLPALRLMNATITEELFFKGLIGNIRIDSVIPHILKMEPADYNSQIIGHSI

[2] = target: T2, Retinoic acid receptor RXR-alpha (Homo sapiens) (UniProt P19793); assay: Selectivity interaction (Reporter gene assay) EUB0000567a RXRA
T2 sequence (whole entry): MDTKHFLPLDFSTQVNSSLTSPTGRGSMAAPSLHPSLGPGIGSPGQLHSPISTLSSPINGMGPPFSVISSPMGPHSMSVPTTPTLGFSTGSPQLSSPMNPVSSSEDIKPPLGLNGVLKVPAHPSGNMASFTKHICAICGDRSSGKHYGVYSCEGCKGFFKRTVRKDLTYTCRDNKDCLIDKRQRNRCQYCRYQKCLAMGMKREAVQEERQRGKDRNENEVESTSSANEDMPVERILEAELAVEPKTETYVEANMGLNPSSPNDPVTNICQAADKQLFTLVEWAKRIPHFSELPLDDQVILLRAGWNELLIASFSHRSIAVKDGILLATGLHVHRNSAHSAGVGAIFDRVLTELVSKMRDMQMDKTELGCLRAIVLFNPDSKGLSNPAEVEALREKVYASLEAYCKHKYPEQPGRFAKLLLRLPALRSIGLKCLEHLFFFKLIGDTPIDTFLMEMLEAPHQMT

[3] = target: T3, Hepatocyte nuclear factor 4-alpha (Homo sapiens) (UniProt P41235); assay: Selectivity interaction (Reporter gene assay) EUB0000567a HNF4A
T3 sequence (whole entry): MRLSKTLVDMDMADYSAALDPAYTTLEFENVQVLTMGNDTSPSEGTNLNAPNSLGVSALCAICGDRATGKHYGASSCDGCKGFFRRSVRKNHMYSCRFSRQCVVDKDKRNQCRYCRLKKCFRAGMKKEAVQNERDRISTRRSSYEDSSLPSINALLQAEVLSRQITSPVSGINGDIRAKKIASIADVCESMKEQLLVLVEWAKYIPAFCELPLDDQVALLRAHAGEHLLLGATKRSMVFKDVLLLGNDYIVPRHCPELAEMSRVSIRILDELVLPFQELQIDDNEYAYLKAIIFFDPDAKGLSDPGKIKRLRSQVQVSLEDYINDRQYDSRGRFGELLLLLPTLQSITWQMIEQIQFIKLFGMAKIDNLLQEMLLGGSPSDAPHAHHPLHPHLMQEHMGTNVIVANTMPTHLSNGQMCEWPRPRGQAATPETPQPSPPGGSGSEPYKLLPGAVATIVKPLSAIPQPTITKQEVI

[4] = target: Nuclear receptor subfamily 2 group E member 1 (Homo sapiens) (UniProt Q9Y466); assay: Selectivity interaction (Reporter gene assay) EUB0000567a NR2E1
[5] = target: Nuclear receptor subfamily 4immunitygroup A member 1 (Homo sapiens) (UniProt P22736); assay: Selectivity interaction (Reporter gene assay) EUB0000567a NR4A1
[6] = target: T4, Alpha trans-inducing protein (Human alphaherpesvirus 1) (UniProt A0A5J6DW59); assay: Selectivity interaction (Reporter gene assay) EUB0000567a UL48
[7] = target: Steroidogenic factor 1 (Homo sapiens) (UniProt Q13285); assay: Selectivity interaction (Reporter gene assay) EUB0000567a NR5A1
[8] = target: Nuclear receptor subfamily 4immunitygroup A member 1 (Homo sapiens) (UniProt P22736); assay: Selectivity interaction (Reporter gene assay) EUB0000570a NR4A1
[9] = target: Nuclear receptor subfamily 2 group E member 1 (Homo sapiens) (UniProt Q9Y466); assay: Selectivity interaction (Reporter gene assay) EUB0000570a NR2E1
[10] = target: T4, Alpha trans-inducing protein (Human alphaherpesvirus 1); assay: Selectivity interaction (Reporter gene assay) EUB0000570a UL48
[11] = target: T1, Nuclear receptor subfamily 2 group C member 1 (Homo sapiens); assay: Selectivity interaction (Reporter gene assay) EUB0000570a NR2C1
[12] = target: T2, Retinoic acid receptor RXR-alpha (Homo sapiens); assay: Selectivity interaction (Reporter gene assay) EUB0000570a RXRA; details: reference bexarotene 1 uM, Selectivity number of off-targets 0.0, Selectivity number of targets 1.0, Source Knowledge inhouse
[13] = target: T3, Hepatocyte nuclear factor 4-alpha (Homo sapiens); assay: Selectivity interaction (Reporter gene assay) EUB0000570a HNF4A
[14] = target: Steroidogenic factor 1 (Homo sapiens) (UniProt Q13285); assay: Selectivity interaction (Reporter gene assay) EUB0000570a NR5A1
[15] = target: Peroxisome proliferator-activated receptor alpha (Homo sapiens) (UniProt Q07869); assay: Selectivity interaction (Reporter gene assay) EUB0000569a PPARA; details: screened at recom. conc., Selectivity number of off-targets 2.0, Selectivity number of targets 19.0, Source Knowledge inhouse
[16] = target: T3, Hepatocyte nuclear factor 4-alpha (Homo sapiens); assay: Selectivity interaction (Reporter gene assay) EUB0000569a HNF4A
[17] = target: T2, Retinoic acid receptor RXR-alpha (Homo sapiens); assay: Selectivity interaction (Reporter gene assay) EUB0000569a RXRA
[18] = target: T5, Peroxisome proliferator-activated receptor gamma (Homo sapiens) (UniProt P37231); assay: Selectivity interaction (Reporter gene assay) EUB0000569a PPARG; details: screened at recom. conc., Selectivity number of off-targets 2.0, Selectivity number of targets 19.0, Source Knowledge inhouse
T5 sequence (whole entry): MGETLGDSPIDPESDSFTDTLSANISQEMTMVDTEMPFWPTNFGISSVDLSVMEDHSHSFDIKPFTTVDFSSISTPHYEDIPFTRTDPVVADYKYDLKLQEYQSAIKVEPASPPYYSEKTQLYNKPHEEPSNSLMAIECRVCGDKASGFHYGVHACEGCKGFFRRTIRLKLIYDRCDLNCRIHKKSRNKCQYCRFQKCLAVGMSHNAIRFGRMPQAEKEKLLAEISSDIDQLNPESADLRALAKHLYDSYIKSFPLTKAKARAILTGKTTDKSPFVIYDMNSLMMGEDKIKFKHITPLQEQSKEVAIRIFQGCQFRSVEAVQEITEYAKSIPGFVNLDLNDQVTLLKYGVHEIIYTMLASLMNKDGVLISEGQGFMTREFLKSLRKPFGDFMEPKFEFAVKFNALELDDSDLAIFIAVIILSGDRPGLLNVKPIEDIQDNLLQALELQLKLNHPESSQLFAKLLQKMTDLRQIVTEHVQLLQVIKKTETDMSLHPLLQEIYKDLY

[19] = target: Steroidogenic factor 1 (Homo sapiens) (UniProt Q13285); assay: Selectivity interaction (Reporter gene assay) EUB0000569a NR5A1
[20] = target: Nuclear receptor subfamily 2 group E member 1 (Homo sapiens) (UniProt Q9Y466); assay: Selectivity interaction (Reporter gene assay) EUB0000569a NR2E1
[21] = target: T4, Alpha trans-inducing protein (Human alphaherpesvirus 1); assay: Selectivity interaction (Reporter gene assay) EUB0000569a UL48
[22] = target: T1, Nuclear receptor subfamily 2 group C member 1 (Homo sapiens); assay: Selectivity interaction (Reporter gene assay) EUB0000569a NR2C1
[23] = target: Nuclear receptor subfamily 4immunitygroup A member 1 (Homo sapiens) (UniProt P22736); assay: Selectivity interaction (Reporter gene assay) EUB0000569a NR4A1
[24] = target: T1, Nuclear receptor subfamily 2 group C member 1 (Homo sapiens); assay: Selectivity interaction (Reporter gene assay) EUB0000564a NR2C1
[25] = target: Steroidogenic factor 1 (Homo sapiens) (UniProt Q13285); assay: Selectivity interaction (Reporter gene assay) EUB0000564a NR5A1
[26] = target: T3, Hepatocyte nuclear factor 4-alpha (Homo sapiens); assay: Selectivity interaction (Reporter gene assay) EUB0000564a HNF4A
[27] = target: Nuclear receptor subfamily 2 group E member 1 (Homo sapiens) (UniProt Q9Y466); assay: Selectivity interaction (Reporter gene assay) EUB0000564a NR2E1
[28] = target: T2, Retinoic acid receptor RXR-alpha (Homo sapiens); assay: Selectivity interaction (Reporter gene assay) EUB0000564a RXRA; details: reference bexarotene 1 uM, Selectivity number of off-targets 0.0, Selectivity number of targets 1.0, Source Knowledge inhouse
[29] = target: T4, Alpha trans-inducing protein (Human alphaherpesvirus 1); assay: Selectivity interaction (Reporter gene assay) EUB0000564a UL48
[30] = target: Nuclear receptor subfamily 4immunitygroup A member 1 (Homo sapiens) (UniProt P22736); assay: Selectivity interaction (Reporter gene assay) EUB0000564a NR4A1
[31] = target: T3, Hepatocyte nuclear factor 4-alpha (Homo sapiens); assay: Selectivity interaction (Reporter gene assay) EUB0000551aCl HNF4A
[32] = target: T1, Nuclear receptor subfamily 2 group C member 1 (Homo sapiens); assay: Selectivity interaction (Reporter gene assay) EUB0000551aCl NR2C1
[33] = target: Nuclear receptor subfamily 4immunitygroup A member 1 (Homo sapiens) (UniProt P22736); assay: Selectivity interaction (Reporter gene assay) EUB0000551aCl NR4A1
[34] = target: Steroidogenic factor 1 (Homo sapiens) (UniProt Q13285); assay: Selectivity interaction (Reporter gene assay) EUB0000551aCl NR5A1
[35] = target: T4, Alpha trans-inducing protein (Human alphaherpesvirus 1); assay: Selectivity interaction (Reporter gene assay) EUB0000551aCl UL48
[36] = target: T2, Retinoic acid receptor RXR-alpha (Homo sapiens); assay: Selectivity interaction (Reporter gene assay) EUB0000551aCl RXRA; details: reference bexarotene 1 uM, Selectivity number of off-targets 0.0, Selectivity number of targets 1.0, Source Knowledge inhouse
[37] = target: Nuclear receptor subfamily 2 group E member 1 (Homo sapiens) (UniProt Q9Y466); assay: Selectivity interaction (Reporter gene assay) EUB0000551aCl NR2E1

T4 sequence (A0A5J6DW59 as listed by the source): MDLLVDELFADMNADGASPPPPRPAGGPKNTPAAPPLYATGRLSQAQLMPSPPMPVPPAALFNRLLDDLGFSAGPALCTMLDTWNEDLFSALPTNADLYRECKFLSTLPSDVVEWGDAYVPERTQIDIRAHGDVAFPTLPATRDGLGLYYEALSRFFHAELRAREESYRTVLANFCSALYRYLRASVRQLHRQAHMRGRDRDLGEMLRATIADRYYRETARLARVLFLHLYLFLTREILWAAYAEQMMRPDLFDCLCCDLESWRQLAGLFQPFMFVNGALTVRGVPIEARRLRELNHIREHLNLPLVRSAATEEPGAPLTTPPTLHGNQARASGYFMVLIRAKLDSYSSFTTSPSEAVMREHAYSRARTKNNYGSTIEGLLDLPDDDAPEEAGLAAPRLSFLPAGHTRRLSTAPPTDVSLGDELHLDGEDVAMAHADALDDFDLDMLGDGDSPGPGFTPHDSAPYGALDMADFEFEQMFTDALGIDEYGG
Nuclear receptor subfamily 2 group E member 1 (Homo sapiens), sequence (Q9Y466 whole entry): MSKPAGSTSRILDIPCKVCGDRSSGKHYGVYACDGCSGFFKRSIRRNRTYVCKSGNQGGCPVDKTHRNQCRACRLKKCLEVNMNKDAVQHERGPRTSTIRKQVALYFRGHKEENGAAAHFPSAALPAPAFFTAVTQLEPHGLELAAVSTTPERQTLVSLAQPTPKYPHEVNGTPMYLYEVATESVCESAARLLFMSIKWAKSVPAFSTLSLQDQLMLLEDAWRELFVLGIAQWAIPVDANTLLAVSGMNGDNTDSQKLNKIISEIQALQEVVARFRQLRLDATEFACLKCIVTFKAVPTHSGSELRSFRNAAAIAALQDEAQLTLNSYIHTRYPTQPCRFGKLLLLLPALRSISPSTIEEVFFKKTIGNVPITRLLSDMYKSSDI
Nuclear receptor subfamily 4immunitygroup A member 1 (Homo sapiens), sequence (P22736 whole entry): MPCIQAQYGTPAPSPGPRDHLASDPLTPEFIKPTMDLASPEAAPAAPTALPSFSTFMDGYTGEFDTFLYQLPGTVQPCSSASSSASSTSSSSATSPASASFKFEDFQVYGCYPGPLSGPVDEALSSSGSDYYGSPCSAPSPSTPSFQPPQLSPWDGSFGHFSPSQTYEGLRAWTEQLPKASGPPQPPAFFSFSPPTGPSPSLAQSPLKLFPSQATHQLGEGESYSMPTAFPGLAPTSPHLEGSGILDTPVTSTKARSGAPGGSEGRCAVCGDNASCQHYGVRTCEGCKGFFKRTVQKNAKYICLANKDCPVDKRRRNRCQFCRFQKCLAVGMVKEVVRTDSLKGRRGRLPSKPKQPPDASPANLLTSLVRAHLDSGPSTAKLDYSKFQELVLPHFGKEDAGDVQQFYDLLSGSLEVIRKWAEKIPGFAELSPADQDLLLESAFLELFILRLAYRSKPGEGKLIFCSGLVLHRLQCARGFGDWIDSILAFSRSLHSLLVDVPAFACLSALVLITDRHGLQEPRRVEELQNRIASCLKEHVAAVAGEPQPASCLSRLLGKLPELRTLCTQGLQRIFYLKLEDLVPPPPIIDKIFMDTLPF
Steroidogenic factor 1 (Homo sapiens), sequence (Q13285 whole entry): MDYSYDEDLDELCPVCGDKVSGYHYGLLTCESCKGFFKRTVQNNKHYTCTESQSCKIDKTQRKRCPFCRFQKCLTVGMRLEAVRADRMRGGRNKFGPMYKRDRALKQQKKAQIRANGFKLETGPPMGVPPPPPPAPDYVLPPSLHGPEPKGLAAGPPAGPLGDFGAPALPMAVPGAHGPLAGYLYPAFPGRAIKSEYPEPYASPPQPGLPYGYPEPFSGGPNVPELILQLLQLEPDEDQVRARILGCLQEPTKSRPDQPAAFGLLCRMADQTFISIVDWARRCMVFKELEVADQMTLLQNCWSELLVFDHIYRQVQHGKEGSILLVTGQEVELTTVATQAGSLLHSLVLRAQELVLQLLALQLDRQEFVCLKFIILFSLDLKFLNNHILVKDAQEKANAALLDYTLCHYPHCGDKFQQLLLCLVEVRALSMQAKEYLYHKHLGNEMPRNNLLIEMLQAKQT
Peroxisome proliferator-activated receptor alpha (Homo sapiens), sequence (Q07869 whole entry): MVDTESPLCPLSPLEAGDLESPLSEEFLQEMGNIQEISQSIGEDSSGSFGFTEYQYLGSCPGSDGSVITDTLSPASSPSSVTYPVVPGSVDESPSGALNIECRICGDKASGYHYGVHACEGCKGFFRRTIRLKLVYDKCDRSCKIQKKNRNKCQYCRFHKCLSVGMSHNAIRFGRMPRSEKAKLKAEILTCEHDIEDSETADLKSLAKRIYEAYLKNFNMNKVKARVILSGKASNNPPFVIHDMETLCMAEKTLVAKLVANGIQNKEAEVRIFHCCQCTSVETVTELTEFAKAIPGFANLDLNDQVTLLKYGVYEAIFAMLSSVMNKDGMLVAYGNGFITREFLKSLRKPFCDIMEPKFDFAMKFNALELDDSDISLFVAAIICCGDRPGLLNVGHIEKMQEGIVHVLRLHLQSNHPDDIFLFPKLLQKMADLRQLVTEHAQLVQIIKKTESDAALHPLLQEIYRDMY

**Q.** How did the Remaining activity [1] turn out when CC1(C)CCC(C)(C)c2cc(C(=O)Nc3ccc(C(=O)O)cc3)ccc21 was run?
**A.** Its Remaining activity is 0.976.

**Q.** What about the Relative activation [2] of the same molecule?
**A.** Its Relative activation is 0.898%.

**Q.** What about the Fold activation [3] of the same molecule?
**A.** The Fold activation was 1.07.

**Q.** And the Remaining activity [4]?
**A.** The Remaining activity was 0.642.

**Q.** What about the Fold activation [5] of the same molecule?
**A.** Its Fold activation is 1.04.

**Q.** And the P-value [6]?
**A.** Its P-value is 0.0055.

**Q.** What about the Remaining activity [7] of the same molecule?
**A.** Its Remaining activity is 0.908.

**Q.** How did the Remaining activity [8] turn out when CN(CCOc1ccc(C[C@H](Nc2ccccc2C(=O)c2ccccc2)C(=O)O)cc1)c1ccccn1 was run?
**A.** The Remaining activity was 0.85.

**Q.** What about the Remaining activity [9] of the same molecule?
**A.** The Remaining activity was 0.776.

**Q.** And the P-value [10]?
**A.** Its P-value is 1.12e-05.

**Q.** What about the Fold activation [11] of the same molecule?
**A.** Its Fold activation is 1.03.

**Q.** What about the Relative activation [12] of the same molecule?
**A.** Its Relative activation is 0.731%.

**Q.** What about the Remaining activity [13] of the same molecule?
**A.** The Remaining activity was 0.831.

**Q.** What about the Remaining activity [14] of the same molecule?
**A.** Its Remaining activity is 0.849.

**Q.** How did the Fold activation [15] turn out when Cc1cc(SCc2sc(-c3ccc(C(F)(F)F)c(F)c3)nc2C)ccc1OCC(=O)O was run?
**A.** Its Fold activation is 14.8.

**Q.** What about the Fold activation [16] of the same molecule?
**A.** Its Fold activation is 1.11.

**Q.** And the Relative activation [17]?
**A.** Its Relative activation is 0.693%.

**Q.** And the Fold activation [18]?
**A.** Its Fold activation is 10.5.

**Q.** What about the Fold activation [19] of the same molecule?
**A.** The Fold activation was 1.02.

**Q.** What about the Fold activation [20] of the same molecule?
**A.** Its Fold activation is 1.36.

**Q.** What about the P-value [21] of the same molecule?
**A.** Its P-value is 0.0031.

**Q.** What about the Fold activation [22] of the same molecule?
**A.** Its Fold activation is 1.31.

**Q.** And the Fold activation [23]?
**A.** The Fold activation was 1.17.

**Q.** Which results are given for COc1ccc(-c2ccc3cc(C(=O)O)ccc3c2)cc1C12CC3CC(CC(C3)C1)C2?
**A.** Fold activation [24]: 1.03; Remaining activity [25]: 0.896; Fold activation [26]: 1; Remaining activity [27]: 0.926; Relative activation [28]: 0.848%; P-value [29]: 0.00282; Fold activation [30]: 1.11

**Q.** Which results are given for Cc1cccc(CN2CCN(C(c3ccccc3)c3ccc(Cl)cc3)CC2)c1 (configuration not stated)?
**A.** Fold activation [31]: 1; Fold activation [32]: 1.14; Fold activation [33]: 1.12; Remaining activity [34]: 0.814; P-value [35]: 0.00398; Relative activation [36]: 0.534%; Fold activation [37]: 1.01
